For one molecule, IC50 results are on record in US20170240556A1, “BIFLUORODIOXALANE-AMINO-BENZIMIDAZOLE KINASE INHIBITORS FOR THE TREATMENT OF CANCER, AUTOIMMUNEINFLAMMATION AND CNS DISORDERS” (4SC DISCOVERY GMBH, priority 2012, published 2017).

This assay has as its system Wnt/β-catenin signaling pathway. The assay can be described thus: Wnt reporter assay (CellSensor LEF/TCF-bla FreeStyle 293F cells). Type of assay: cell-based. To be noted: Homo sapiens; LEF/TCF-bla 293F cells, LiCl and mWnt3a stimulation. On the procedure:
The Wnt reporter assay was performed in stably transfected human HEK293 cells. Wnt signaling was induced by administration of Wnt3a protein and read out by β-Lactamase mediated cleavage of CCF4-AM and subsequent fluorescent detection.
CellSensor LEF/TCF-bla FreeStyle 293F cells (invitrogen #K1677) contain a beta-lactamase reporter gene under control of the β-catenin/LEF/TCF binding elements stably integrated into FreeStyle 293F cells. This cell line can be used to detect antagonists of the Wnt/β-catenin signaling pathway when stimulated by mouse Wnt3a or LiCl. The detection of beta-lactamase is possible with LiveBLAzer FRET—B/G Loading Kit (invitrogen #K1095) with CCF4-AM as subtrate.
Culture Medium: DMEM Medium +10% dialyzed FBS (PAN 2102-P290310), +1% NEAA (PAA M11-003), +1% P/S (Penicillin/Streptomycin, PAA P11-010) +25 mM HEPES (PAA S11-001), +5 μg/ml Blasticidin (PAA P05-017).
Cells (CellSensor LEF/TCF-bla FreeStyle 293F, invitrogen K1677) were split with Culture Medium to reach a confluence at the beginning of the assay of 80-90%.
At start of the assay, cells were harvested from culture and resuspend in assay medium at density of 0,66*10̂6 cells/ml. Subsequently, 60μ1 cell suspension were pipetted in each well of a Poly-D-Lysine 96 well Plate (BD #354640, vertical rows are marked 1 through 12, horizontal lanes are marked A through H),
Plates were subsequently incubated at 37° C. for at least 2 h.
To stimulate with Wnt3a, overnight prestimulation of Wnt signalling pathway with LiCl is necessary. Subsequently, an 8M aqueous LiCl solution was diluted 1:200 in assay medium, and 30 μl of said diluted LiCl solution was plated into the appropriate wells (see below pipetting scheme). Plates were then incubated at 37° C. over night.
Subsequently, compounds and controls were prepared as follows: mWnt3a (R&D 1324-WN, dissolved in PBS+0.1% BSA to 40 μg/ml) was diluted 1:100 in assay medium (=400 ng/ml). Compounds (Cpd) were diluted to a concentration of 10 mM in DMSO to prepare dilution series in assay medium (final concentrations 30 μM, 10 μM, 3 μM, 1 μM, 0.3 μM, 0.1 μM, 0.03 μM and 0.01 μM), which were pipetted into the appropriate wells (see below pipetting scheme). For each dilution of each compound, 3 replicates were tested. Final DMSO concentration was 0.3%.
LiCl and mWnt3a stimulated cells were used as High control (HC), unstimulated cells were used as low control, a blank was prepared from cell free medium plus mWnt3a, and a functional control was prepared with a known Wnt inhibitor (e.g. PKF118-310), final concentrations were as above.
Subsequently, the well was incubated for 5 h at 37° C.
At t=23 hours, FRET reagent mix (Loading Kit with CCF4-AM, Life Technologies #K1096) was prepared; per plate: 138 μl Solution B, 13.8 μl FRET-reagent, and 2300 μl Solution C. 24 μl FRET reagent mix were plated to each well, subsequently plates were incubated for at least 2 h in the dark (it is possible to incubate over night). Subsequently, plates were measured in the BMG FluorStar® plate reader at an emission waveltengths of 460 and 520 nm and with an excitation wavelength of 405 nm.
To determine potential cytotoxicity of the compounds, plates were centrifuge and the supernatant was discarded by dumping the plates. Subsequently, 100 μl Opti-MEM and 50 μl ViaLight (Lonza #LT07-321) Lysis Buffer were added to each well, followed by incubation for 10 min at room temperature (25° C.). Subsequently, 100 μl ViaLight reagent were added to each well, followed by incubation for 2 min at room temperature (25° C.) in the dark. Optionally, 200 μl of the obtained suspension were transferred to a white 96 well plate. The luminescence was measured with a Tecan Ultra plate reader.

Turning to `COc1cccc(C(=O)Nc2nc3cc4c(cc3[nH]2)OC(F)(F)O4)c1` [Compound 56, N-(2,2-difluoro-5H-[1,3]dioxolo[4′,5′:4,5]benzo[1,2-d]imidazol-6-yl)-3-methoxybenzamide], the half-maximal inhibitory concentration (IC50) (usually the concentration that inhibits the measured activity by half) is less than 5 µM.
